pIC50: −log10 of the molar value.
Biological target: recombinant eIF4E (Homo sapiens (Human), UniProt P06730)
Assay: Fluorescence polarization competition assay for eIF4E binding potency
Conditions: inhibition of eIF4E/EDA-m7GDP-ATTO-550 binding; calculated IC50 values, Table 4B; read-out: IC50
Outline: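 Competitive displacement format: compounds compete with a fluorescent m7GDP tracer (20 nM) for 75 nM recombinant eIF4E. Incubation is 30 min at room temperature, protected from light, with 1% DMSO. Polarization read gives IC50 over eight 3-fold concentrations.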

Chain of recombinant eIF4E (P06730 whole entry): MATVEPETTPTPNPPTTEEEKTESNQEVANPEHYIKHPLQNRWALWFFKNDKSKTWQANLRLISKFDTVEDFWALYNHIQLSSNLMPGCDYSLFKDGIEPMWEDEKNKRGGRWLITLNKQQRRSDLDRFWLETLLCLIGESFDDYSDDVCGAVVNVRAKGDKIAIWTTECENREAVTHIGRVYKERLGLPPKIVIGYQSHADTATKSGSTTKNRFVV

pIC50	SMILES
7.62	Cc1nc2cnc(N(C)C3CCN(CC(F)(F)c4ccccc4)CC3)c(C#N)c2c(=O)n1CC#Cc1ccc(Cl)cc1-c1ccnc2c(C(=O)O)csc12 [compound 1555]
7.30	Cc1nc2cnc(N3CC[C@H]4CN(CC(F)F)CC[C@H]43)c(C#N)c2c(=O)n1CC#Cc1ccc(Cl)cc1-c1ccnc2c(C(=O)O)csc12 [compound 1556]
8.17	Cc1nc2cnc(N(C)C3CCN(CC(F)F)CC3)c(C#N)c2c(=O)n1C(C)C#Cc1ccc(Cl)cc1-c1ccnc2c(C(=O)O)csc12 (stereo not shown) [compound 1557]
7.16	Cc1nc2cnc(-c3cccc4c3CCN(CC(F)F)C4)c(C#N)c2c(=O)n1CC#Cc1ccc(Cl)cc1-c1ccnc2c(C(=O)O)csc12 [compound 1558]
7.87	Cc1nc2cnc(-c3cccc(CN(C)CC(F)F)c3)c(C#N)c2c(=O)n1CC#Cc1ccc(Cl)cc1-c1ccnc2c(C(=O)O)csc12 [compound 1559]
8.20	Cc1nc2cnc(N(C)C3CCN(CC(F)F)CC3)c(C#N)c2c(=O)n1CC#Cc1ccc(Cl)cc1-c1ccnc2c(C(=O)NO)csc12 [compound 1560]
7.89	Cc1nc2cnc(N(C)C3CCN(C4COC4)CC3)c(C#N)c2c(=O)n1CC#Cc1ccc(Cl)cc1-c1ccnc2c(C(=O)NS(C)(=O)=O)csc12 [compound 1561]
7.77	Cc1nc(N(C)C2CCN(CC(C)(F)F)CC2)c(C#N)c2c(=O)n(CCOc3ccc(Cl)cc3-c3ccnc4c(C(=O)O)csc34)c(C)nc12 [compound 1562]
7.89	Cc1cc(-c2cc(Cl)ccc2OCCn2c(C)nc3cnc(N(C)C4CCN(CC(C)(F)F)CC4)c(C#N)c3c2=O)c2scc(C(=O)O)c2n1 [compound 1563]
7.97	Cc1nc2cnc(N3CCC(N4CC(F)C4)CC3)c(C#N)c2c(=O)n1CC#Cc1ccc(Cl)cc1-c1ccnc2c(C(=O)O)csc12 [compound 1564]
8.36	Cc1nc2cnc(N(C)C3CCN(CC(F)F)CC3)c(C#N)c2c(=O)n1CC#Cc1ccc(Cl)cc1-c1ccnc2c(C(=O)NS(=O)(=O)c3ccccn3)csc12 [compound 1566]
7.71	Cc1nc2cnc(N(C)c3ccncc3)c(C#N)c2c(=O)n1CC#Cc1ccc(Cl)cc1-c1ccnc2c(C(=O)O)csc12 [compound 1569]
7.64	Cc1nc2cc(C(F)(F)F)c(N3CC4(C3)CN(C3CC3)C4)c(C#N)c2c(=O)n1CC#Cc1ccc(Cl)cc1-c1ccnc2c(C(=O)O)csc12 [compound 1570]
7.69	Cc1nc2cnc(C3CCCN(CC(F)F)C3)c(C#N)c2c(=O)n1CCCc1ccc(Cl)cc1-c1ccnc2c(C(=O)O)csc12 (stereo not shown) [compound 1571]
7.70	Cc1nc2cnc(C(F)(F)C3CCN(CC(F)F)CC3)c(C#N)c2c(=O)n1CC#Cc1ccc(Cl)cc1-c1ccnc2c(C(=O)O)csc12 [compound 1572]
7.65	Cc1nc2cnc(C3=CCC(N(C)CC(F)F)CC3)c(C#N)c2c(=O)n1CC#Cc1ccc(Cl)cc1-c1ccnc2c(C(=O)O)csc12 (stereo not shown) [compound 1573]
7.87	Cc1nc2cnc(C3CCCN(CC(F)F)C3)c(C#N)c2c(=O)n1CC#Cc1ccc(Cl)cc1-c1ccnc2c(C(=O)O)csc12 (stereo not shown) [compound 1574]
7.83	Cc1nc2cnc(N(C)C3[C@@H]4CC[C@H]3CN(CC(C)(F)F)C4)c(C#N)c2c(=O)n1CC#Cc1ccc(Cl)cc1-c1ccnc2c(C(=O)O)csc12 (stereo partly shown) [compound 1575]
7.75	Cc1nc2cnc(N(C)[C@@H]3[C@@H]4C[C@H]3CN(CC(C)(F)F)C4)c(C#N)c2c(=O)n1CC#Cc1ccc(Cl)cc1-c1ccnc2c(C(=O)O)csc12 [compound 1576]
7.88	Cc1nc2cnc(N(C)[C@H]3[C@@H]4C[C@H]3CN(CC(C)(F)F)C4)c(C#N)c2c(=O)n1CC#Cc1ccc(Cl)cc1-c1ccnc2c(C(=O)O)csc12 [compound 1577]
7.69	CCN(c1ncc2nc(C)n(CC#Cc3ccc(Cl)cc3-c3ccnc4c(C(=O)NS(C)(=O)=O)csc34)c(=O)c2c1C#N)C1CCN(C2COC2)CC1 [compound 1578]
7.52	Cc1nc2cnc(N(C)[C@H]3CC[C@H](N(CC(F)F)C(C)CO)CC3)c(C#N)c2c(=O)n1CC#Cc1ccc(Cl)cc1-c1ccnc2c(C(=O)O)csc12 (stereo partly shown) [compound 1579]
7.84	Cc1nc2cnc(N(C)[C@@H]3CC[C@@H](N(C)CC(F)F)C3)c(C#N)c2c(=O)n1CC#Cc1ccc(Cl)cc1-c1ccnc2c(C(=O)O)csc12 [compound 1581]
7.72	Cc1nc2cnc(N(C)C3CCN(CC(F)(F)C4CC(F)(F)C4)CC3)c(C#N)c2c(=O)n1CC#Cc1ccc(Cl)cc1-c1ccnc2c(C(=O)O)csc12 [compound 1582]

pIC50	SMILES
7.24	Cc1nc2cnc(N(C)[C@H]3CC[C@H](CN(C)CC(C)(F)F)CC3)c(C#N)c2c(=O)n1CC#Cc1ccc(Cl)cc1-c1ccnc2c(C(=O)O)csc12 [compound 1583]
7.43	Cc1nc2cnc(N(C)C3CCN(CC4(CF)CCC4)CC3)c(C#N)c2c(=O)n1CC#Cc1ccc(Cl)cc1-c1ccnc2c(C(=O)O)csc12 [compound 1584]
7.82	Cc1nc2cnc(N(C)C3CCN(CC(F)(F)Cl)CC3)c(C#N)c2c(=O)n1CC#Cc1ccc(Cl)cc1-c1ccnc2c(C(=O)O)csc12 [compound 1585]
7.50	Cc1nc2cnc(N(C)C3CCN(CC(C)(C)C(F)(F)F)CC3)c(C#N)c2c(=O)n1CC#Cc1ccc(Cl)cc1-c1ccnc2c(C(=O)O)csc12 [compound 1586]
7.40	Cc1nc2cnc(N(C)C3CCN(CC4(C(F)(F)F)CC4)CC3)c(C#N)c2c(=O)n1CC#Cc1ccc(Cl)cc1-c1ccnc2c(C(=O)O)csc12 [compound 1587]
7.58	Cc1nc2cnc(N(C)C3CCN(CC4(C(F)(F)F)CCC4)CC3)c(C#N)c2c(=O)n1CC#Cc1ccc(Cl)cc1-c1ccnc2c(C(=O)O)csc12 [compound 1588]
7.91	Cc1nc2cnc(N(C)C3CCN(C4CC(F)(F)C4)CC3)c(C#N)c2c(=O)n1CC#Cc1ccc(Cl)cc1-c1ccnc2c(C(=O)NS(C)(=O)=O)csc12 [compound 1589]
7.44	Cc1nc2cnc(N(C)C3CCN(C4(C(F)F)COC4)CC3)c(C#N)c2c(=O)n1CC#Cc1ccc(Cl)cc1-c1ccnc2c(C(=O)NS(C)(=O)=O)csc12 [compound 1590]
7.44	Cc1nc2cnc(N3CCC(N(CC(F)F)C4COC4)CC3)c(C#N)c2c(=O)n1CC#Cc1ccc(Cl)cc1-c1ccnc2c(C(=O)NS(=O)(=O)CC(F)F)csc12 [compound 1591]
7.69	Cc1nc2cnc(N3CCC(N(C)C4CC(F)(F)C4)CC3)c(C#N)c2c(=O)n1CC#Cc1ccc(Cl)cc1-c1ccnc2c(C(=O)O)csc12 [compound 1592]
7.21	Cc1nc2cnc(N(C)C3CCN(CC(F)(F)F)CC3)c(C#N)c2c(=O)n1CC#Cc1ccc(Cl)cc1-c1ccnc2c(C(=O)NS(=O)(=O)CC(F)(F)F)csc12 [compound 1593]
6.35	Cc1nc2cnc(N(C)C3CCN(CC(F)(F)F)CC3)c(C#N)c2c(=O)n1CC#Cc1ccc(Cl)cc1-c1ccnc2c(C(N)=O)csc12 [compound 1594]
7.26	Cc1nc2cnc(N(C)C3CCN(CC(C)(F)F)CC3)c(C#N)c2c(=O)n1CC#Cc1ccc(Cl)cc1-c1ccnc2c(C(=O)NS(=O)(=O)CC(F)(F)F)csc12 [compound 1595]
6.18	Cc1nc2cnc(N(C)C3CCN(CC(C)(F)F)CC3)c(C#N)c2c(=O)n1CC#Cc1ccc(Cl)cc1-c1ccnc2c(C(N)=O)csc12 [compound 1596]
7.66	Cc1nc2cnc(N(C)C3CCN(CC(F)F)CC3)c(C#N)c2c(=O)n1CC#Cc1ccc(Cl)cc1-c1ccnc2c(C(=O)NS(=O)(=O)CC(F)(F)F)csc12 [compound 1597]
7.43	Cc1nc2cnc(N(C)C3CCN(CC(F)(F)C4(O)CCC4)CC3)c(C#N)c2c(=O)n1CC#Cc1ccc(Cl)cc1-c1ccnc2c(C(=O)O)csc12 [compound 1598]
7.69	CCN(c1ncc2nc(C)n(CC#Cc3ccc(Cl)cc3-c3ccnc4c(C(=O)O)csc34)c(=O)c2c1C#N)C1CCN(C2CC2)CC1 [compound 1600]
8.09	CCN(c1ncc2nc(C)n(CC#Cc3ccc(Cl)cc3-c3ccnc4c(C(=O)NS(C)(=O)=O)csc34)c(=O)c2c1C#N)C1CCN(C2CC(F)(F)C2)CC1 [compound 1601]
8.41	Cc1nc2cnc(N(C)C3CCN([C@H]4C[C@H](F)C4)CC3)c(C#N)c2c(=O)n1CC#Cc1ccc(Cl)cc1-c1ccnc2c(C(=O)NS(C)(=O)=O)csc12 [compound 1602]
7.84	CCN(c1ncc2nc(C)n(CC#Cc3ccc(Cl)cc3-c3ccnc4c(C(=O)NS(C)(=O)=O)csc34)c(=O)c2c1C#N)C1CCN(CC(F)(F)C(F)F)CC1 [compound 1607]
8.22	Cc1nc2cnc(N(C)C3CCN([C@H]4C[C@@H](OC(F)(F)F)C4)CC3)c(C#N)c2c(=O)n1CC#Cc1ccc(Cl)cc1-c1ccnc2c(C(=O)NS(=O)(=O)C3COC3)csc12 [compound 1610]
8.41	Cc1nc2cnc(N(C)C3CCN([C@H]4C[C@@H](OC(F)(F)F)C4)CC3)c(C#N)c2c(=O)n1CC#Cc1ccc(Cl)cc1-c1ccnc2c(C(=O)NS(=O)(=O)c3ccccn3)csc12 [compound 1611]
7.79	Cc1nc2cc(C(F)(F)F)c(N3CCN(C)CC3)c(C#N)c2c(=O)n1CCOc1ccc(Cl)cc1-c1ccnc2c(P(=O)(O)O)csc12 [compound 1613]
7.83	Cc1nc2cc(C(F)(F)F)c(N3CCN(C4CC4)CC3)c(C#N)c2c(=O)n1CCOc1ccc(Cl)cc1-c1ccnc2c(P(=O)(O)O)csc12 [compound 1615]

SMILES	pIC50
CCOP(=O)(OCC)c1csc2c(-c3cc(Cl)ccc3OCCn3c(C)nc4cc(C(F)(F)F)c(N5CCN(C)CC5)c(C#N)c4c3=O)ccnc12 [compound 1612]	7.86
CCOP(=O)(OCC)c1csc2c(-c3cc(Cl)ccc3OCCn3c(C)nc4cc(C(F)(F)F)c(N5CCN(C6CC6)CC5)c(C#N)c4c3=O)ccnc12 [compound 1614]	7.50
CCOP(=O)(OCC)c1csc2c(-c3cc(Cl)ccc3OCCn3c(C)nc4cnc(N(C)C5CCN(CC(F)F)CC5)c(C#N)c4c3=O)ccnc12 [compound 1616]	7.94
Cc1nc2cnc(N(C)C3CCN(CC(F)F)CC3)c(C#N)c2c(=O)n1CCOc1ccc(Cl)cc1-c1ccnc2c(P(=O)(O)O)csc12 [compound 1617]	7.81
